Measured values: publication PMC10819458, “Using Pharmacokinetic–Pharmacodynamic Modeling to Study the Main Active Substances of the Anticancer Effect in Mice from Panax ginseng–Ophiopogon japonicus” (Molecules, 2024)
Like-named read-outs stand apart in the source and are kept apart here.

Test: Lung-tissue pharmacokinetics of PG–OJ components in tumor-bearing mice (UPLC–MS/MS)
Type: in vivo, BALB/c nude male mice
Details: for Cmax: read-out: Cmax; for MRT last: read-out: MRT(0–t) (converted)
Description: This study employed Ultra-Performance Liquid Chromatography–Mass Spectrometry (UPLC–MS/MS) to examine the pharmacokinetic properties of 20 bioactive components in a cell-derived xenograft (CDX) model following oral administration of a 10.2 g/kg PG–OJ extract.
Healthy BALB/c nude male mice (weight: 18–21 g) were purchased from Beijing Huafukang Biotechnology Co., Ltd. (Beijing, China, License Number: SCXK (Jing) 2021-0006). After 3 days of acclimatization, the mice were randomly divided into the control group (CG), model group (MG), and the combined-administration group of P. ginseng and O. japonicus (HM1-HM13) ([…], four-fold clinical-equivalent doses). Subsequently, except for the CG, 0.2 mL (approximately 2 × 10^7 cells) of A549 cell suspension was aspirated with a 1 mL syringe and injected into the right axillary fossa of the model group and drug-administration-group mice. The control-group mice were injected with an equal volume of PBS at the same location. The tumor diameter was measured daily using a caliper. The model was successful when the tumor diameter > 3 mm. The combined-administration group of P. ginseng and O. japonicus was given the corresponding drug orally, once a day, with 0.2 mL/mouse each time. The control group and the model group mice were given the same volume of distilled water, continuously orally for 21 days. During this period, the body weight and tumor volume of the mice were recorded. At the end of the last administration, the mice were […] 0.083, 0.167, 0.25, 0.5, 0.75, 1, 2, 3, 4, 6, 8, 12, 24 h later. After injecting 0.1% pentobarbital sodium, blood was collected from the eye-socket vein, the mice were decapitated, and the tumor and lung tissues were carefully removed.
After homogenizing 50 mg of right-lung-tissue sample, 2 mL of acetonitrile was added to precipitate proteins. The mixture was oscillated for 2 min and then centrifuged for 10 min (12,000 rpm, 4 °C). The supernatant from the new centrifuge tube was collected and dried with nitrogen at room temperature. Finally, the supernatant was redissolved in 50 μL of acetonitrile solution containing 0.1% formic acid. After oscillating for 1 min, another centrifugation step was performed, and the resulting supernatant was used for analysis.
Samples were analyzed on the Vanquish UPLC System (Thermo, Waltham, MA, USA). The Agilent C18 column (4.6 × 150 mm, 4 μm, PN:693970-902T) was selected. The mobile phase was composed of 0.1% formic acid aqueous solution (A) and 0.1% formic acid acetonitrile solution (B). The procedure of gradient elution was as follows: 0–10 min, 95–75% A; 10–25 min, 75–45% A; 25–40 min, 45–30% A; 40–50 min, 30–5% A; 55–55.1 min, 5–95% A; 55.1–60 min, 95% A. The column temperature was set to 30 °C with the flow rate of 0.3 mL/min and the injection volume of 3.0 μL. The mass-spectrometry detection with negative-ion mode was carried out using an Orbitrap Exploris 120 Mass Spectrometer (Thermo, Waltham, MA, USA) and Electrospray ionization (ESI). The sheath-gas-flow rate was […] and the auxiliary-gas-flow rate was […]. The capillary temperature was 325 °C, and the resolution was 120,000 in full scan mode with the mass scan range of 80~1500 m/z. The secondary cracking was performed with HCD at a collision voltage of 30 eV, and unnecessary MS/MS information was removed using the dynamic exclusion method.

[1] = lung tissue, A549 tumor-bearing mice, intragastric PG–OJ extract 10.2 g/kg (6.8 g/kg elsewhere in the source), mean ± SD, n = 6
[2] = male, BALB/c nude, mouse, lung tissue, po, 10.2 g/kg, lung tissue, A549 tumor-bearing mice, intragastric PG–OJ extract 10.2 g/kg (6.8 g/kg elsewhere in the source), mean ± SD, n = 6, read-out: Tmax (converted)
[3] = male, BALB/c nude, mouse, lung tissue, po, 10.2 g/kg, lung tissue, oral PG–OJ extract, read-out: time to reach peak concentration
[4] = male, BALB/c nude, mouse, po, lung tissue, A549 tumor-bearing mice, intragastric PG–OJ extract 10.2 g/kg (6.8 g/kg elsewhere in the source), mean ± SD, n = 6
[5] = male, BALB/c nude, mouse, po, lung tissue, A549 tumor-bearing mice, intragastric PG–OJ extract 10.2 g/kg (6.8 g/kg elsewhere in the source), mean ± SD, n = 6, read-out: T1/2
[6] = male, BALB/c nude, mouse, in vivo, po
[7] = male, BALB/c nude, mouse, in vivo, po, Tmax
[8] = lung tissue, oral PG–OJ extract
[9] = male, BALB/c nude, mouse, in vivo, po, lung tissue, A549 tumor-bearing mice, intragastric PG–OJ extract 10.2 g/kg (6.8 g/kg elsewhere in the source), mean ± SD, n = 6

| AUC(0–t) [1] | AUC(0–∞) [1] | Tmax [2] | Cmax [4] | MRT last [4] | half-life [5] | SMILES | also measured |
| --- | --- | --- | --- | --- | --- | --- | --- |
| 23,180.66 ± 703.80 ng/g·min | 25,129.88 ± 1611.92 ng/g·min | 12 h | 43 ± 2.11 ng/g | 11.6 h | 7.41 ± 1.68 h | CC(C)=CCC[C@](C)(O[C@@H]1O[C@H](CO[C@@H]2O[C@@H](CO)[C@H](O)[C@H]2O)[C@@H](O)[C@H](O)[C@H]1O)[C@H]1CC[C@]2(C)[C@@H]1[C@H](O)C[C@@H]1[C@@]3(C)CC[C@H](O[C@@H]4O[C@H](CO)[C@@H](O)[C@H](O)[C@H]4O[C@@H]4O[C@H](CO)[C@@H](O)[C@H](O)[C@H]4O)C(C)(C)[C@@H]3CC[C@]12C [Ginsenoside Rc] | Tmax [3]: 12 h |
| 4049.29 ± 622.84 ng·min/g | 16,689.44 ± 2585.97 ng/g·min |  | 5.92 ± 0.45 ng/g | 13.8 h | 66.6 ± 8.6 h | CC(C)=CCC[C@](C)(O[C@@H]1O[C@H](CO[C@@H]2OC[C@@H](O)[C@H](O)[C@H]2O)[C@@H](O)[C@H](O)[C@H]1O)[C@H]1CC[C@]2(C)[C@@H]1[C@H](O)C[C@@H]1[C@@]3(C)CC[C@H](O[C@@H]4O[C@H](CO)[C@@H](O)[C@H](O)[C@H]4O[C@@H]4O[C@H](CO)[C@@H](O)[C@H](O)[C@H]4O)C(C)(C)[C@@H]3CC[C@]12C [Ginsenoside Rb3] |  |
| 3935.63 ± 598.40 ng·min/g | 6076.50 ± 664.68 ng·min/g |  | 7.2 ± 0.96 ng/g | 11.9 h | 19.9 ± 4.38 h | CC(C)=CCC[C@](C)(O[C@@H]1O[C@H](CO[C@@H]2OC[C@H](O)[C@H](O)[C@H]2O)[C@@H](O)[C@H](O)[C@H]1O)[C@H]1CC[C@]2(C)[C@@H]1[C@H](O)C[C@@H]1[C@@]3(C)CC[C@H](O[C@@H]4O[C@H](CO)[C@@H](O)[C@H](O)[C@H]4O[C@@H]4O[C@H](CO)[C@@H](O)[C@H](O)[C@H]4O)C(C)(C)[C@@H]3CC[C@]12C [Ginsenoside Rb2] |  |
| 3815.68 ± 233.30 ng·min/g | 3933.20 ± 224.66 ng·min/g | 0.0833 h | 132 ± 32.9 ng/g | 1.57 h | 1.76 ± 0.0727 h | CC(C)=CCC[C@](C)(O[C@@H]1O[C@H](CO)[C@@H](O)[C@H](O)[C@H]1O)[C@H]1CC[C@]2(C)[C@@H]1[C@H](O)C[C@@H]1[C@@]3(C)CC[C@H](O)C(C)(C)[C@@H]3[C@@H](O[C@@H]3O[C@H](CO)[C@@H](O)[C@H](O)[C@H]3O[C@@H]3O[C@@H](C)[C@H](O)[C@@H](O)[C@H]3O)C[C@]12C [Ginsenoside Re] | time to reach maximum concentration (Cmax) after administration [8]: ≤ 15 min |
| 2295.03 ± 213.32 ng·min/g | 2345.90 ± 212.68 ng·min/g | 0.25 h | 50.2 ± 6.67 ng/g | 2.26 h | 1.64 ± 0.0457 h | CC(C)=CCC[C@](C)(O[C@@H]1O[C@H](CO)[C@@H](O)[C@H](O)[C@H]1O)[C@H]1CC[C@]2(C)[C@@H]1[C@H](O)C[C@@H]1[C@@]3(C)CC[C@H](O)C(C)(C)[C@@H]3[C@@H](O[C@@H]3O[C@H](CO)[C@@H](O)[C@H](O)[C@H]3O)C[C@]12C [Ginsenoside Rg1] | time to reach maximum concentration (Cmax) after administration [8]: ≤ 15 min |

The remaining lines, values behind:

| SMILES | AUC(0–t) [1] | AUC(0–∞) [1] | Tmax [2] | Cmax [4] | MRT last [4] | half-life [5] | also measured |
| --- | --- | --- | --- | --- | --- | --- | --- |
| CC(C)=CCC[C@](C)(O[C@@H]1O[C@H](CO)[C@@H](O)[C@H](O)[C@H]1O)[C@H]1CC[C@]2(C)[C@@H]1[C@H](O)C[C@@H]1[C@@]3(C)CC[C@H](O[C@@H]4O[C@H](CO)[C@@H](O)[C@H](O)[C@H]4O)C(C)(C)[C@@H]3CC[C@]12C [Ginsenoside F2] |  |  |  |  |  |  | half-life [6]: 5.83 ± 0.269 h; Tmax [7]: 1 h; AUC(0–∞) compared with other components (mouse, in vivo, po): significantly higher than those of other components |
| CC(C)(O)[C@H]1CC[C@@](C)([C@H]2CC[C@]3(C)[C@@H]2[C@H](O)C[C@@H]2[C@@]4(C)CC[C@H](O)C(C)(C)[C@@H]4[C@@H](O[C@@H]4O[C@H](CO)[C@@H](O)[C@H](O)[C@H]4O)C[C@]23C)O1 [Pseudoginsenoside RT5] |  |  |  |  |  |  | T1/2 (mouse, in vivo, po): 10.572 ± 2.3632 h; Tmax (mouse, in vivo, po): 0.25 ± 0 h; half-life (mouse, in vivo, po): 10.6 h; time to reach maximum concentration (Cmax) after administration (mouse, in vivo, po): ≤ 15 min |
| CC(C)=CCC[C@](C)(O)[C@H]1CC[C@]2(C)[C@@H]1[C@H](O)C[C@@H]1[C@@]3(C)CC[C@H](O)C(C)(C)[C@@H]3[C@@H](O[C@@H]3O[C@H](CO)[C@@H](O)[C@H](O)[C@H]3O)C[C@]12C [Ginsenoside Rh1] | 1303.44 ± 70.16 ng·min/g | 1724.14 ± 411.48 ng·min/g |  |  |  |  | time to reach maximum concentration (Cmax) after administration [8]: ≤ 15 min; half-life (male, BALB/c nude, mouse, in vivo, po, 10.2 g/kg, lung tissue, A549 tumor-bearing mice, intragastric PG–OJ extract 10.2 g/kg (6.8 g/kg elsewhere in the source), mean ± SD, n = 6, read-out: T1/2): 6.97 ± 4.9 h; half-life (male, BALB/c nude, mouse, in vivo, po, 10.2 g/kg, lung tissue, oral PG–OJ extract, read-out: half-life (converted)): 6.9 h; Cmax [9]: 8.98 ± 0.2 ng/g; MRT last [9]: 3.18 h; Tmax (male, BALB/c nude, mouse, in vivo, po, lung tissue, A549 tumor-bearing mice, intragastric PG–OJ extract 10.2 g/kg (6.8 g/kg elsewhere in the source), mean ± SD, n = 6, read-out: Tmax (converted)): 0.208 h; exposure level in lung tissue (oral PG–OJ extract, in words): extremely low |
| CC(C)=CCC[C@](C)(O)[C@H]1CC[C@]2(C)[C@@H]1[C@H](O)C[C@@H]1[C@@]3(C)CC[C@H](O)C(C)(C)[C@@H]3[C@@H](O[C@@H]3O[C@H](CO)[C@@H](O)[C@H](O)[C@H]3O[C@@H]3O[C@H](CO)[C@@H](O)[C@H](O)[C@H]3O)C[C@]12C [Ginsenoside Rf] |  |  |  |  |  |  | half-life [6]: 1.28 ± 0.0173 h; Tmax [7]: 0.25 h; time to reach maximum concentration (Cmax) after administration (mouse, in vivo, po): ≤ 15 min |
| CC1(C)CC[C@]2(C(=O)O[C@@H]3O[C@H](CO)[C@@H](O)[C@H](O)[C@H]3O)CC[C@]3(C)C(=CC[C@@H]4[C@@]5(C)CC[C@H](O[C@@H]6O[C@H](C(=O)O)[C@@H](O)[C@H](O)[C@H]6O[C@@H]6O[C@H](CO)[C@@H](O)[C@H](O)[C@H]6O)C(C)(C)[C@@H]5CC[C@]43C)[C@@H]2C1 [Ginsenoside Ro] |  |  |  |  |  |  | T1/2 (mouse, in vivo, po): 4.2077 ± 0.198 h; Tmax (mouse, in vivo, po): 0.2083 ± 0.0482 h; time to reach maximum concentration (Cmax) after administration (mouse, in vivo, po): ≤ 15 min |
| CC(C)=CCC[C@](C)(O[C@@H]1O[C@H](CO[C@@H]2O[C@H](CO)[C@@H](O)[C@H](O)[C@H]2O)[C@@H](O)[C@H](O)[C@H]1O)[C@H]1CC[C@]2(C)[C@@H]1[C@H](O)C[C@@H]1[C@@]3(C)CC[C@H](O[C@@H]4O[C@H](CO)[C@@H](O)[C@H](O)[C@H]4O[C@@H]4O[C@H](CO)[C@@H](O)[C@H](O)[C@H]4O)C(C)(C)[C@@H]3CC[C@]12C [Ginsenoside Rb1] | 227,245.91 ± 5460.47 ng/g·min | 283,948.70 ± 17,261.40 ng/g·min | 12 h | 441 ± 15.7 ng/g | 11.5 h | 32.9 ± 3.15 h | AUC(0–∞) compared with other components (lung tissue, oral PG–OJ extract, in words): significantly higher than those of other components; Tmax [3]: 12 h |
